One assay relates to P388 cells. As to the kind of experiment: P388 antiproliferative (MTT) assay. Type of assay: cell-based. To be noted: Mus musculus, 48 hr exposure. The method, then: (§1) P388 cells are obtained from Dr. J. Mayo, National Cancer Institute, Bethesda, Md., and A549 cells are obtained from American Type Culture Collection, Rockville, Md. All cell lines are maintained in Roswell Park Memorial Institute (RPMI) medium 1640 supplemented with 10% horse serum. All cell lines are cultured in plastic tissue culture flasks and kept in an incubator at 37° C. in humidified air containing 5% CO2. Prior to testing, antibiotic-free stock cultures of each of the cell lines are subcultured to 10^6 cells/ml by dilution in fresh growth medium at 2 to 3 day intervals.
(§2) To assess the antiproliferative effects of agents against the P388 cell line, 200 μl cultures (96-well tissue culture plates, Nunc, Denmark) are established at 1×10^5 cells/ml in drug-free medium or medium containing the test agent at 10.0, 1.0, 0.10 and 0.010 μg/ml. Solvent for all dilutions ethanol. All experimental cultures are initiated in medium containing Gentamycin sulfate (50 μg/ml; Schering Corporation, Kenilworth, N.J.). After48 hr exposures, P388 cells are enumerated using 3-[4,5-Dimethylthiazol-2-yl]-2,5-diphenyltetrazolium bromide (MTT).
To quantitate the effects on cell proliferation and resulting IC50 values, 75 μl of warm growth media containing 5 mg/ml MTT is added to each well, cultures returned to the incubator, and left undisturbed for 90 minutes. […]

The subject of the next assay is A549 cells. As to the kind of experiment: A549 antiproliferative (MTT) assay. The assay is classed as cell-based. To be noted: Homo sapiens, additional 48 hr exposure prior to MTT addition. The method, then:
as §1, §2
[…] Results are expressed as percent inhibition compared to the negative (no drug) control. Positive drug controls are included to monitor drug sensitivity of each of the cell lines. […]

A further assay deals with T1, CPP32 (Homo sapiens, UniProt P42574).
T1 construct: BASF, Worchester, Mass; (gift, not a purchase)
T1 sequence (P42574 29-175 limits assumed): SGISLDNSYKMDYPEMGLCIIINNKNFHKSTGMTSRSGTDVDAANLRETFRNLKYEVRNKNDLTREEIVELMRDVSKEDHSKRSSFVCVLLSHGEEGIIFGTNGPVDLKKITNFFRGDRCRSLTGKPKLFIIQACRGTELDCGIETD
T1 sequence (P42574 176-277 limits assumed): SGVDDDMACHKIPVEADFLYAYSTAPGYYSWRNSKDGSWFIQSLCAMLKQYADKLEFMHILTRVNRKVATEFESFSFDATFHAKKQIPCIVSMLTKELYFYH
Put plainly: Caspase inhibition (CPP32, Ac-DEVD-pNA substrate). The assay is classed as biochemical. The settings on record: Ac-DEVD-pNA 25 μM, pH 7.5, 30 degrees C., 30 minutes. The method, then:
Test samples were aliquoted into 96 well microtiter plates and allowed to air dry. The stock CPP32 enzyme (kindly supplied by BASF, Worchester, Mass.) was diluted by adding 10 μl of the enzyme to 17 ml of reaction buffer (50 mM Hepes pH 7.5; 10% glycerol; 5 mM Dithiothreitol; 0.5 mM EDTA). A volume of 180 μl of the diluted enzyme was added to wells containing the dried test samples, or to empty wells (control). The contents of the microtiter wells were mixed by shaking on a plate shaker. Plates were incubated at 30 degrees C. for 5 minutes. […] Controls for each plate consisted of an inhibitor control (50 nM DEVD-CHO final concentration); positive control (enzyme and substrate) and negative control (reaction buffer and substrate). The plates were covered with aluminum foil and mixed using a plate shaker for 5 minutes then incubated at 30 degrees C. for 30 minutes. Plates were read using on a plate reader with absorbance measured at 405 nm. Data was expressed as percent inhibition by comparing the absorbance values of test samples with those of the positive control (no sample).

Another assay has as its target T2, calcineurin (Bos taurus, UniProt P48452).
T2 construct: Calcineurin was prepared from bovine brain; from tissue; host or cells: bovine brain
Put plainly: Calcineurin assay (p-nitrophenylphosphate phosphatase activity). Type of assay: biochemical, bovine. The settings on record: pH 7.5, 30° C., 60 min. The method, then: Calmodulin was prepared from bovine brain according to the method of Wallace et al. ([1983] Meth. Enzymol. 102:39-47). The calmodulin was either used directly or coupled to sepharose-4B to form the calmodulin-sepharoseaffinity column necessary for the isolation of calcineurin. Calcineurin was prepared from bovine brain by the method of Tallant et al. ([1983] Meth. Enzymol. 102:244-286), concentrated, aliquoted and stored at -80° C.
Calcineurin activity was assayed in 96-well microtiter plates in a final volume of 50 μl. Each well contained 50 mM Tris-HCl pH 7.5, 0.5 mM MnCl2, 0.05 mM CaCl2, 1 mM DTT, 50 mM p-nitrophenylphosphate (pNPP), 0.3 μg calcineurin, a five-fold excess of calmodulin, and either test samples or control compounds. Plates were incubated at 30° C. for 60 min. Liberated p-nitrophenol was determined by the change in absorbance at 405 nm.

The results in this text go back to patent publication US6057333A, “Discorhabdin compounds and methods of use” (Harbor Branch Oceanographic Institution, Inc., priority 1998, dated 2000).

As a reminder, the IC50 is the concentration that inhibits the measured activity by half. By inhibition is commonly meant the change of the read-out against control, counted positive when it falls. In general, pIC50 refers to −log10 of the IC50, conventionally taken in molar units.

pIC50: −log10 of the molar value. Values after ≈ are worked out from the molar mass of the structure shown.

T2 sequence (P63099 2-170, other chains not shown): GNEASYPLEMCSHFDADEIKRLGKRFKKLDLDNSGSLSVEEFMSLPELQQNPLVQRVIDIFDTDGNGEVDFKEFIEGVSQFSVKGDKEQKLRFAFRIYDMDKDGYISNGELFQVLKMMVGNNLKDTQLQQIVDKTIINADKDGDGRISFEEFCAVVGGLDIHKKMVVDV

With `Cn1cc2c3c1C(=O)C1=C(C3=NCC2)C2(C=C(Br)C(=O)C(Br)=C2)CCN1` [discorhabdin P], the results for the half-maximal inhibitory concentration (IC50) in the assay with P388 cells, in the assay on A549 cells and on CPP32 were 0.025 µg/mL, 0.41 µg/mL and 0.37 µg/mL (≈ 0.775 µM), respectively. In addition, the inhibition at 0.5 µg/mL on calcineurin (at 0.5 μg/ml) was 33%. Further, the inhibition at 5 µg/mL on calcineurin (at 5 μg/ml) amounted to 64%. In addition, at calcineurin, the negative logarithm of the IC50 (pIC50) was 5.94.
